# Measurements published in the supplement of paper PMC11061612.
# Key:
# [1] = system: OS-RC-2 (Kidney Carcinoma); test: Bliss excess, mean over the matrix (fraction); higher = more synergy
# Procedure, shortened: (§1)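 After 24 hours at 37°C and 5% CO2 in 1536-well plates, cells in DMEM/F12 or RPMI plus 10% FBS received two-drug dose matrices for 72 hours. Viability came from CellTiter-Glo 2.0 luminescence and was scaled as inhibition, anchored at 0 by vehicle wells and at 1 by blank wells. Combination Emax is taken as the second-highest inhibition in the matrix, and Bliss excess as the observed combination effect less EA + EB − EA·EB, with EA and EB the single-agent effects.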
# [2] = system: NCI-H2141 (Small Cell Lung Carcinoma); test: as above
# Procedure, shortened: as §1
# [3] = system: PANC-10-05 (Pancreatic Carcinoma); test: as above
# Procedure, shortened: as §1
# [4] = system: NCI-H2066 (Squamous Cell Lung Carcinoma); test: combination Emax (second highest fraction inhibited in the dose matrix, 72 h); higher = more inhibition; extreme values may be limits of the assay
# Procedure, shortened: as §1
# [5] = system: COLO-320-HSR (Colorectal Carcinoma); test: as above
# Procedure, shortened: as §1
# PA-1 (Ovarian Carcinoma) = test: as above
# Procedure, shortened: as §1
# [6] = system: CAL-29 (Bladder Carcinoma); test: as above
# Procedure, shortened: as §1
# FU97 (Gastric Carcinoma) = test: as above
# Procedure, shortened: as §1
# [7] = system: CCK-81 (Colorectal Carcinoma); test: as above
# Procedure, shortened: as §1
# [8] = system: COLO-824 (Breast Carcinoma); test: as above
# Procedure, shortened: as §1
# [9] = system: NCI-H1693 (Lung Adenocarcinoma); test: as above
# Procedure, shortened: as §1
# [10] = system: COR-L311 (Small Cell Lung Carcinoma); test: as above
# Procedure, shortened: as §1
# [11] = system: MDST8 (Colorectal Carcinoma); test: as above
# Procedure, shortened: as §1
# [12] = system: TT (Thyroid Gland Carcinoma); test: as above
# Procedure, shortened: as §1
# LN-405 (Glioblastoma) = test: as above
# Procedure, shortened: as §1
# [13] = system: KARPAS-422 (B-Cell Non-Hodgkin's Lymphoma); test: as above
# Procedure, shortened: as §1
# IGR-37 (Melanoma) = test: as above
# Procedure, shortened: as §1
# [14] = system: SISO (Cervical Carcinoma); test: as above
# Procedure, shortened: as §1
# [15] = system: NCI-H1581 (Non-Small Cell Lung Carcinoma); test: as above
# Procedure, shortened: as §1
# [16] = system: VCaP (Prostate Carcinoma); test: as above
# Procedure, shortened: as §1
# 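Wherever Bliss excess, mean over the matrix is given: after 72 h of two-drug dosing.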
Compound,Bliss excess [1],Bliss excess [2],Bliss excess [3],combination Emax [4],combination Emax [5],combination Emax (PA-1 (Ovarian Carcinoma)),combination Emax [6],combination Emax (FU97 (Gastric Carcinoma)),combination Emax [7],combination Emax [8],combination Emax [9],combination Emax [10],combination Emax [11],combination Emax [12],combination Emax (LN-405 (Glioblastoma)),combination Emax [13],combination Emax (IGR-37 (Melanoma)),combination Emax [14],combination Emax [15],combination Emax [16]
"CC1(C)CCC(CN2CCN(c3ccc(C(=O)NS(=O)(=O)c4ccc(NCC5CCOCC5)c([N+](=O)[O-])c4)c(Oc4cnc5[nH]ccc5c4)c3)CC2)=C(c2ccc(Cl)cc2)C1 [Venetoclax] + COc1cc(Nc2ncc3c(n2)-c2ccc(Cl)cc2C(c2c(F)cccc2OC)=NC3)ccc1C(=O)O [Alisertib] (first compound max 1 µM, 7x7, partner max 10 µM)",-0.0547,0.171,-0.0602,0.285,0.296,0.927,0.364,0.484,0.318,1,0.344,0.842,0.329,0.573,0.513,0.858,0.486,0.543,0.698,0.305
"CN(C)CCCOc1ccc(-c2ccc3ncc4c(c3c2)n(C2CCOCC2)c(=O)n4C)cn1 [AZD0156] + C[C@@H]1COCCN1C2=NC(=NC(=C2)C3(CC3)[S@](=N)(=O)C)C4=C5C=CNC5=NC=C4 [AZD6738] (first compound max 1 µM, 7x7, partner max 10 µM)",-0.0419,-0.0766,-0.0415,0.35,0.652,0.85,0.772,0.414,0.912,0.712,0.192,0.408,0.919,0.429,0.376,0.653,0.781,0.588,0.418,0.359
"CN(CCO)CC[C@H](CSc1ccccc1)Nc1ccc(S(=O)(=O)NC(=O)c2ccc(N3CCC([C@@H](O)c4ccccc4-c4ccc(Cl)cc4)CC3)cc2)cc1S(=O)(=O)C(F)(F)F [AZD4320] + CCN(CCO)CCCOc1ccc2c(Nc3cc(CC(=O)Nc4cccc(F)c4)[nH]n3)ncnc2c1 [AZD2811] (first compound max 1 µM, 7x7, partner max 1 µM)",-0.0659,0.0443,-0.0758,0.543,0.0615,0.773,0.545,0.177,0.178,1,0.221,1,0.918,0.615,0.363,0.903,0.116,0.401,0.445,0.194
"CC1(C)CCC(CN2CCN(c3ccc(C(=O)NS(=O)(=O)c4ccc(NCC5CCOCC5)c([N+](=O)[O-])c4)c(Oc4cnc5[nH]ccc5c4)c3)CC2)=C(c2ccc(Cl)cc2)C1 [Venetoclax] + Cn1cnc2c(F)c(Nc3ccc(Br)cc3Cl)c(C(=O)NOCCO)cc21 [Selumetinib] (first compound max 1 µM, 7x7, partner max 3 µM)",-0.101,-0.0303,-0.0386,0.191,0.083,0.318,0.245,0.314,0.369,0.829,0.26,0.635,0.646,0.436,0.182,0.793,0.879,0.196,0.32,0.143
"CC1(C)CCC(CN2CCN(c3ccc(C(=O)NS(=O)(=O)c4ccc(NCC5CCOCC5)c([N+](=O)[O-])c4)c(Oc4cnc5[nH]ccc5c4)c3)CC2)=C(c2ccc(Cl)cc2)C1 [Venetoclax] + C1CN(CCC1(C(=O)N[C@@H](CCO)C2=CC=C(C=C2)Cl)N)C3=NC=NC4=C3C=CN4 [Capivasertib] (first compound max 1 µM, 7x7, partner max 3 µM)",-0.0442,-0.0534,-0.0656,0.424,0.0935,0.636,0.277,0.533,0.156,0.881,0.197,0.842,0.317,0.681,0.429,0.917,0.556,0.106,0.0621,0.398
"CC1(C)CCC(CN2CCN(c3ccc(C(=O)NS(=O)(=O)c4ccc(NCC5CCOCC5)c([N+](=O)[O-])c4)c(Oc4cnc5[nH]ccc5c4)c3)CC2)=C(c2ccc(Cl)cc2)C1 [Venetoclax] + Cc1cc2ncnn2cc1Nc1ncc2c(n1)n(C1CCOCC1)c(=O)n2C [AZD7648] (first compound max 1 µM, 7x7, partner max 10 µM)",-0.0584,-0.0491,-0.0721,0.273,0.174,0.473,0.209,0.494,0.173,0.766,0.26,0.671,0.245,0.601,0.373,0.897,0.556,0.164,0.222,0.293
